For assay [1], the target named is T1, FKP (bacterial L-fucokinase/GDP-fucose pyrophosphorylase) (Bacteroides fragilis, UniProt Q58T34).
T1 sequence (Q58T34 1-949): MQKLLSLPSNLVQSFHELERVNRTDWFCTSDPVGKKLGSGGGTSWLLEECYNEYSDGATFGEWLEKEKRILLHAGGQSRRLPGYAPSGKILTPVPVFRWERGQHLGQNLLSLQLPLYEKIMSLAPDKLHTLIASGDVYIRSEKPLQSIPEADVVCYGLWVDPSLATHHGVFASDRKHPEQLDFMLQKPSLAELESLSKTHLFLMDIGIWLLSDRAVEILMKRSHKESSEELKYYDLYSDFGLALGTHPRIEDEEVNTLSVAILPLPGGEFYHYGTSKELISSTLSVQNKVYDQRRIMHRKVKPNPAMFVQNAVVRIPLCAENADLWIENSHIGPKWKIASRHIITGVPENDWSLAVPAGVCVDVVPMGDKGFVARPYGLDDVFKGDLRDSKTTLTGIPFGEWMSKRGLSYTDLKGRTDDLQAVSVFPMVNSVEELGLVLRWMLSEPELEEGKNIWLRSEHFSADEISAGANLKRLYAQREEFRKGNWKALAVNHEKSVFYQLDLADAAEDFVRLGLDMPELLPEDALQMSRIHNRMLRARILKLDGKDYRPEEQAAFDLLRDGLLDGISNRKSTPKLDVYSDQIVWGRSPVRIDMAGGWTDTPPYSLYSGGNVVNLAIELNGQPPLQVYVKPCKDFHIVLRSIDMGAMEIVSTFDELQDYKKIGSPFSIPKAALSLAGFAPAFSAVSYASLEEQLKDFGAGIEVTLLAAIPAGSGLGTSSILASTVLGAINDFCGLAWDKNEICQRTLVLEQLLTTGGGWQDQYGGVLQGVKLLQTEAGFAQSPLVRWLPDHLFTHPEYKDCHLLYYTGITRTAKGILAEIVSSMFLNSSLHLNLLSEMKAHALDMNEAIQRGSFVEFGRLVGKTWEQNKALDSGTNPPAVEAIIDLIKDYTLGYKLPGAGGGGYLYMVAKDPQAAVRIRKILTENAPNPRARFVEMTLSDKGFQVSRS
In words: Enzymatic conversion by FKP into the sugar nucleotide. Type of assay: biochemical.

Assay [2] has as its system FUT8. The conditions noted are these: read-out: Km as donor for FUT8; cited from earlier work.
The test system of assay [3] is FUT6. The conditions noted are these: read-out: Km as donor for FUT6; cited from earlier work.
Assay [4] concerns HL-60 cells. The experiment in a line: Cell surface fucosylation, flow cytometry with lectin AAL staining. The conditions noted are these: 4 to 500 μM, 3 days, normalized to DMSO as 100%. Type of assay: cell-based.

`[N-]=[N+]=NC[C@@H]1OC(O)[C@@H](F)[C@H](O)[C@@H]1O` (stereo partly shown) [6‐N3‐2‐F‐Fuc]: the “conversion by FKP into the corresponding sugar nucleotide product” value in assay [1] is “unable to catalyze the conversion”. Usually Km stands for the substrate concentration at which the rate is half of its maximum. Consider `Nc1nc2c(ncn2C2OC(COP(=O)(O)OP(=O)(O)OC3OC(CNC(=O)Cc4ccc5ccccc5c4)C(O)C(O)C3O)C(O)C2O)c(=O)[nH]1` (stereo not shown) [6‐deoxy‐6‐N‐(2‐naphthylacetyl)‐GDP‐fucose], for which the Km is 175 µM in assay [2] and 940 nM in assay [3]. Take `CC(=O)O[C@@H]1O[C@@H](C)[C@@H](OC(C)=O)[C@@H](OC(C)=O)[C@@H]1OC(C)=O` [Ac‐fucose]: in assay [4], the “effect on cell surface fucosylation” value is given as “enhanced fucosylation”.

The record behind these values is article PMC12596933 (Chembiochem, 2025).
